Results: US4256462A, “Method and composition for determination of n-nitrosamines” (University of Iowa Research Foundation, priority 1979, dated 1981)

Experiment: Denitrosation reaction time, iodo vs bromo salts
Conditions: sodium iodide reagent
Description: Particularly for the sodium iodide salt, the reaction will occur within one minute, whereas, when bromo salts are substituted, the reaction times are considerably longer, such as five minutes.

[I-].[Na+] [sodium iodide]
reaction time: one
